From US10315996B2, “ROR gamma (RORγ) modulators” (LEAD PHARMA HOLDING B.V., priority 2015, dated 2019) come the findings set out here.

Each structure is given as a SMILES string.

One assay addresses T1, RORγ (Homo sapiens, UniProt P51449).
T1 construct: expressed in transfected cells; host or cells: 293FT cells (Invitrogen), expression vector pFN26A (Promega)
T1 sequence (P51449 269-508 limits assumed): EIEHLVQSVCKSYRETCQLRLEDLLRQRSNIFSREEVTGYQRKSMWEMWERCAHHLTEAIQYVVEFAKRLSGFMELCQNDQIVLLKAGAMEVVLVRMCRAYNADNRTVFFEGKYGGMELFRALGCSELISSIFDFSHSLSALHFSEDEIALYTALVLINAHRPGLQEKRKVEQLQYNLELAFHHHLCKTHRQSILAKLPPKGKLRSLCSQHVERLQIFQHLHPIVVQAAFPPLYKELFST
The assay is described as follows: RORγ GAL4 reporter gene assay. The settings on record: inhibition of RORγ activity, GAL4-RORγ-LBD luciferase reporter in 293FT cells, overnight incubation; read-out: mean pIC50 (converted). In kind it is cell-based. The gist of the method:
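293FT cells were transiently co-transfected with GAL4-DBD–RORγ-LBD (or GAL4-VP16 control) and a 9×UAS luc2P reporter, then plated at 60,000 cells/well. Compound was added at final 0.2% DMSO for 16-24 h at 37 °C, and inhibition was measured by firefly luciferase luminescence.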

The subject of assay [1] is IL-17A production in anti-CD3/anti-CD28 stimulated peripheral blood mononuclear cells (PBMCs). The assay is described as follows: Peripheral blood mononuclear cell (PBMC) IL-17 assay. In kind it is cell-based. The settings on record: Homo sapiens, 120 h, inhibition of IL-17A production, PBMCs isolated from human blood, 5 days incubation, IL-17 ELISA, read-out: mean pIC50 (converted). The protocol: PBMC IL-17 Assay Description
This assay is designed to measure the levels of IL-17A secreted from anti-CD3/anti-CD28 stimulated PBMCs with the aim of measuring RORγ mediated inhibition of IL-17A production.
The assay medium consists of 90% RPMI 1640 (Lonza), 10% heat inactivated fetal bovin serum (FBS, Lonza) and 100 U/mL penicillin/streptomycin solution.
Anti-CD3 antibody (BD Pharmingen) was diluted to 10 μg/ml in PBS (Lonza). 30 μL of 10 μg/ml anti-CD3 solution was added to the inner 60 wells, excluding any negative control wells, of a 96-well cell culture treated U-bottom plate (Greiner). Plates were incubated overnight (16-24 hours) at 37° C. and 5% CO2.
Peripheral blood mononuclear cells were separated from buffy coats (Sanquin) using Ficoll-Paque PREMIUM separation medium (GE Healthcare Life Sciences) according to manufacturer's protocol and re-suspended in assay medium at 37° C.
Test compounds were diluted, starting from a 10 mM dimethylsulfoxide (DMSO) stock solution, to serial dilutions in DMSO at 200× the final test concentration. Subsequently, these solutions were diluted in two dilution steps in assay medium to 10× the final test concentration. The DMSO concentration of the 10× test compound solution was 5%.
Anti-CD28 antibody (BD Pharmingen) was diluted to 20 μg/mL in PBS. The PBMCs were diluted to a concentration of 2.5×10^6 cells/mL in assay medium at 37° C.
For compound screening, the anti-CD3 coated plates were washed three times with PBS, the wells were subsequently aspirated using vacuum. To each screening well 80 μL of the PBMC suspension, 10 μL of the anti-CD28 solution and 10 μL of the 10× test compound solution was added, resulting in the final test concentration with 0.5% DMSO. All outer wells were filled with assay medium to prevent evaporation. Plates were incubated for 5 days at 37° C. and 5% CO2.
After incubation the plates were spun down at 1500 rpm for 4 minutes and the supernatant was collected. Subsequently, the IL-17A levels in the supernatants was determined using an IL-17 ELISA kit (human IL-17 DuoSet, R&D systems) according to manufacturer's protocol.
The half maximum inhibitory concentration ([…]) values for the test compounds were calculated from the IL-17A signal using GraphPad Prism software (GraphPad Software).
(In general: In an ELISA, binding on a coated surface is turned into a signal by an enzyme label.)

Take `C[C@H](NC(=O)c1ccc(NC(=O)Cc2ccc(S(=O)(=O)CC3CC3)cc2)cc1)c1ccccc1F` [Example 71, 4-[2-(4-cyclopropylmethanesulfonylphenyl)acetamido]-N-[(1S)-1-(2-fluorophenyl)ethyl]benzamide]: the IC50 on RORγ is not above 100 nM; in assay [1], not above 1000 nM.
Take `CCN(C(=O)c1ccc(NC(=O)Cc2ccc(S(=O)(=O)NC3CC3)cc2)cc1)c1ccc(C)cc1` [Example 45, 4-{2-[4-(cyclopropylsulfamoyl)phenyl]acetamido}-N-ethyl-N-(4-methylphenyl) benzamide]: the IC50 is not above 10 nM at RORγ and not above 1000 nM in assay [1].
In the same order, the values of `CCCN(CC1CC1)C(=O)c1ccc(NC(=O)Cc2ccc(S(=O)(=O)CC3CC3)cc2)cc1` [Example 9, 4-[2-(4-cyclopropylmethanesulfonylphenyl)acetamido]-N-(cyclopropylmethyl)-N-propylbenzamide] are not above 100 nM and not above 1000 nM.
For `CCN(C(=O)c1ccc(NC(=O)Cc2ccc(S(=O)(=O)CC3CC3)cc2)cc1)c1ccon1` [Example 103, 4-[2-(4-cyclopropylmethanesulfonylphenyl)acetamido]-N-ethyl-N-(1,2-oxazol-3-yl)benzamide], the IC50 on RORγ was not above 10 nM; in assay [1] it was not above 1000 nM.
As for `CC(C)(NC(=O)c1ccc(NC(=O)Cc2ccc(S(=O)(=O)CC3CC3)cc2)cc1)c1ccccc1` [Example 6, 4-[2-(4-cyclopropylmethanesulfonylphenyl)acetamido]-N-(2-phenylpropan-2-yl)benzamide], the IC50 on RORγ is not above 100 nM; in assay [1] it was not above 1000 nM.
On to `CCN(C(=O)c1ccc(NC(=O)Cc2ccc(S(=O)(=O)CC3CC3)cc2)cc1)c1cc(C)on1` [Example 89, 4-[2-(4-cyclopropylmethanesulfonylphenyl)acetamido]-N-ethyl-N-(5-methyl-1,2-oxazol-3-yl)benzamide], for which the IC50 at RORγ is not above 10 nM.
The same measure, in the same setting: the same measure for `CCN(C(=O)c1ccc(NC(=O)Cc2ccc(S(=O)(=O)CC3CC3)cc2)cc1F)c1cccc(C)c1C` [Example 119, 4-[2-(4-cyclopropylmethanesulfonylphenyl)acetamido]-N-(2,3-dimethylphenyl)-N-ethyl-2-fluorobenzamide]: not above 10 nM; for `O=C(Cc1ccc(S(=O)(=O)CC2CC2)cc1)Nc1ccc(C(=O)N(CC(F)(F)F)c2ccccc2)cc1` [Example 104, 4-[2-(4-cyclopropylmethanesulfonylphenyl)acetamido]-N-phenyl-N-(2,2,2-trifluoroethyl)benzamide]: not above 10 nM.
The same measure, in the same setting: the same measure for `CCCN(C)C(=O)c1ccc(NC(=O)Cc2ccc(S(=O)(=O)CC3CC3)cc2)cc1` [Example 7, 4-[2-(4-cyclopropylmethanesulfonylphenyl)acetamido]-N-methyl-N-propylbenzamide]: not above 1000 nM; for `CCNC(=O)c1ccc(NC(=O)Cc2ccc(S(=O)(=O)CC3CC3)cc2)cc1` [Example 2, 4-[2-(4-cyclopropylmethanesulfonylphenyl)acetamido]-N-ethylbenzamide]: not above 1000 nM.
For the molecule `CCN(C(=O)c1ccc(NC(=O)Cc2ccc(S(=O)(=O)NC3CC3)cc2)cc1)c1c(C)noc1C` [Example 110, 4-{2-[4-(cyclopropylsulfamoyl)phenyl]acetamido}-N-(dimethyl-1,2-oxazol-4-yl)-N-ethylbenzamide], the IC50 on RORγ was not above 1000 nM.
The same measure, in the same setting: the figure for `Cc1cc(NC(=O)Cc2ccc(S(=O)(=O)CC3CC3)cc2)ccc1C(=O)N(C)c1ccccc1C` [Example 163, 4-[2-(4-cyclopropylmethanesulfonylphenyl)acetamido]-N,2-dimethyl-N-(2-methylphenyl)benzamide] is not above 10 nM; for `CCN(C(=O)c1ccc(NC(=O)Cc2ccc(S(=O)(=O)CC3CC3)cc2)c(Cl)c1)c1ccccc1` [Example 53, 3-chloro-4-[2-(4-cyclopropylmethanesulfonylphenyl)acetamido]-N-ethyl-N-phenylbenzamide] it is not above 100 nM; for `CN(C(=O)c1ccc(NC(=O)Cc2ccc(S(=O)(=O)CC3CC3)cc2)cc1F)c1ccccc1F` [Example 126, 4-[2-(4-cyclopropylmethanesulfonylphenyl)acetamido]-2-fluoro-N-(2-fluorophenyl)-N-methylbenzamide] it is not above 10 nM.
Regarding `CCN(C(=O)c1ccc(NC(=O)Cc2ccc(S(=O)(=O)NC3CC3)cc2)cc1)c1cccc(C(=O)OC)c1` [Example 47, methyl 3-(N-ethyl-4-{2-[4-(cyclopropylsulfamoyl)phenyl]acetamido}benzamido) benzoate], the IC50 at RORγ is not above 100 nM.
Same read-out and setting: the same measure for `CC(C)(C)C1COc2ccccc2N1C(=O)c1ccc(NC(=O)Cc2ccc(S(=O)(=O)CC3CC3)cc2)cc1` (centres unmarked) [Example 121, N-[4-(3-tert-butyl-3,4-dihydro-2H-1,4-benzoxazine-4-carbonyl)phenyl]-2-(4-cyclopropylmethanesulfonylphenyl)acetamide]: not above 100 nM.
For `CCCN(C(=O)c1ccc(NC(=O)Cc2ccc(S(=O)(=O)CC3CC3)cc2)cc1)c1cc(C)nn1C` [Example 86, 4-[2-(4-cyclopropylmethanesulfonylphenyl)acetamido]-N-(1,3-dimethyl-1H-pyrazol-5-yl)-N-propylbenzamide], the IC50 at RORγ is not above 10 nM.
For `CC(N(C(=O)c1ccc(NC(=O)Cc2ccc(S(=O)(=O)NC3CC3)cc2)cc1)c1ccccc1)C(F)(F)F` (centres unmarked) [Example 148, 4-{2-[4-(cyclopropylsulfamoyl)phenyl]acetamido}-N-phenyl-N-(1,1,1-trifluoropropan-2-yl)benzamide], the IC50 at RORγ is not above 100 nM.
Still for that read-out and setting: the figure for `CCN(C(=O)c1ccc(NC(=O)Cc2ccc(S(=O)(=O)CC3CC3)cc2)cc1)c1cc(C)nn1C` [Example 88, 4-[2-(4-cyclopropylmethanesulfonylphenyl)acetamido]-N-(1,3-dimethyl-1H-pyrazol-5-yl)-N-ethylbenzamide] is not above 10 nM; for `CCOC(=O)c1cc2c(s1)CN(C(=O)c1ccc(NC(=O)Cc3ccc(S(=O)(=O)CC4CC4)cc3)cc1)CC2` [Example 33, ethyl 6-{4-[2-(4-cyclopropylmethanesulfonylphenyl)acetamido]benzoyl}-4H,5H,6H,7H-thieno[2,3-c]pyridine-2-carboxylate] it is not above 1000 nM; for `CCN(C(=O)c1ccc(NC(=O)Cc2ccc(S(=O)(=O)CC3CC3)cc2)cc1)c1ccc(C)cc1` [Example 29, 4-[2-(4-cyclopropylmethanesulfonylphenyl)acetamido]-N-ethyl-N-(4-methylphenyl)benzamide] it is not above 10 nM.
The same measure, in the same setting: the figure for `O=C(Cc1ccc(S(=O)(=O)CC2CC2)cc1)Nc1ccc(C(=O)N2CCCC2c2ccccc2)cc1` (centres unmarked) [Example 35, 2-(4-cyclopropylmethanesulfonylphenyl)-N-[4-(2-phenylpyrrolidine-1-carbonyl)phenyl]acetamide] is not above 100 nM; for `CCN(C(=O)c1ccc(NC(=O)Cc2ccc(S(=O)(=O)CC3CC3)cc2)cc1C)c1ccccc1` [Example 162, 4-[2-(4-cyclopropylmethanesulfonylphenyl)acetamido]-N-ethyl-2-methyl-N-phenylbenzamide] it is not above 100 nM.
On the same count and under the same terms, the figure for `CCN(C(=O)c1ccc(NC(=O)Cc2ccc(S(=O)(=O)CC3CC3)cc2)cc1Cl)c1ccccc1C` [Example 129, 2-chloro-4-[2-(4-cyclopropylmethanesulfonylphenyl)acetamido]-N-ethyl-N-(2-methylphenyl)benzamide] is not above 10 nM.
